How the values were obtained:
c-Met [1] = molecular target: T1, c-Met (Homo sapiens, UniProt P08581); assay: Inhibition of c-Met kinase phosphorylation in MKN-45 cells (cell based ELISA); set-up: endogenous in cells; host or cells: MKN-45; conditions: 1 h
Experimental: Inhibition of c-Met Kinase Phosphorylation in MKN-45 Cells:
MKN45 cells are a prototype of “c-Met addicted” cells having constitutively activated c-Met kinase similar to that observed in sub-sects of gastric or hepatocellular cancer patients with dysregulated c-Met kinase activity. Inhibition of Met phosphorylation was determined using a cell based ELISA assay according to the following schedule:
Day 1: MKN-45 cells were plated in 96-well plates in complete growth medium.
Day 2: Inhibitors at the desired concentration were added to the plates and incubated for 1 h and lysed subsequently.
Lysates were transferred to NUNC Maxisorp plates coated with anti-cMet receptor antibody. Phopho-tyrosine mAb and HRP-lined anti-mouse IgG were used as primary and secondary antibodies respectively. Optical density was measured on a microplate reader (BMG Labtech., Germany) at […]. Inhibition of c-Met phosphorylation in this cell line indicates a therapeutic potential for test compounds in patients diagnosed with cancers caused by aberrant c-Met kinase signalling.

MKN-45 cells [2] = assay: Inhibition of MKN-45 proliferation (MTT); format: cell-based, human
In short: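 Viability measured by MTT dye reduction on day 5 after compound addition on day 2 to MKN-45 gastric adenocarcinoma cells (high Met expression) seeded on day 1 in complete medium.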

Met kinase [3] = molecular target: T2, Met kinase (Homo sapiens, UniProt P08581); assay: MET kinase assay (colorimetric determination of c-Met kinase activity, HTScan Met Kinase Assay Kit); format: biochemical; set-up: purchased Cell Signalling Technology, Beverly, Mass; conditions: for IC50: c-Met kinase
T2 sequence (P08581 25-1390): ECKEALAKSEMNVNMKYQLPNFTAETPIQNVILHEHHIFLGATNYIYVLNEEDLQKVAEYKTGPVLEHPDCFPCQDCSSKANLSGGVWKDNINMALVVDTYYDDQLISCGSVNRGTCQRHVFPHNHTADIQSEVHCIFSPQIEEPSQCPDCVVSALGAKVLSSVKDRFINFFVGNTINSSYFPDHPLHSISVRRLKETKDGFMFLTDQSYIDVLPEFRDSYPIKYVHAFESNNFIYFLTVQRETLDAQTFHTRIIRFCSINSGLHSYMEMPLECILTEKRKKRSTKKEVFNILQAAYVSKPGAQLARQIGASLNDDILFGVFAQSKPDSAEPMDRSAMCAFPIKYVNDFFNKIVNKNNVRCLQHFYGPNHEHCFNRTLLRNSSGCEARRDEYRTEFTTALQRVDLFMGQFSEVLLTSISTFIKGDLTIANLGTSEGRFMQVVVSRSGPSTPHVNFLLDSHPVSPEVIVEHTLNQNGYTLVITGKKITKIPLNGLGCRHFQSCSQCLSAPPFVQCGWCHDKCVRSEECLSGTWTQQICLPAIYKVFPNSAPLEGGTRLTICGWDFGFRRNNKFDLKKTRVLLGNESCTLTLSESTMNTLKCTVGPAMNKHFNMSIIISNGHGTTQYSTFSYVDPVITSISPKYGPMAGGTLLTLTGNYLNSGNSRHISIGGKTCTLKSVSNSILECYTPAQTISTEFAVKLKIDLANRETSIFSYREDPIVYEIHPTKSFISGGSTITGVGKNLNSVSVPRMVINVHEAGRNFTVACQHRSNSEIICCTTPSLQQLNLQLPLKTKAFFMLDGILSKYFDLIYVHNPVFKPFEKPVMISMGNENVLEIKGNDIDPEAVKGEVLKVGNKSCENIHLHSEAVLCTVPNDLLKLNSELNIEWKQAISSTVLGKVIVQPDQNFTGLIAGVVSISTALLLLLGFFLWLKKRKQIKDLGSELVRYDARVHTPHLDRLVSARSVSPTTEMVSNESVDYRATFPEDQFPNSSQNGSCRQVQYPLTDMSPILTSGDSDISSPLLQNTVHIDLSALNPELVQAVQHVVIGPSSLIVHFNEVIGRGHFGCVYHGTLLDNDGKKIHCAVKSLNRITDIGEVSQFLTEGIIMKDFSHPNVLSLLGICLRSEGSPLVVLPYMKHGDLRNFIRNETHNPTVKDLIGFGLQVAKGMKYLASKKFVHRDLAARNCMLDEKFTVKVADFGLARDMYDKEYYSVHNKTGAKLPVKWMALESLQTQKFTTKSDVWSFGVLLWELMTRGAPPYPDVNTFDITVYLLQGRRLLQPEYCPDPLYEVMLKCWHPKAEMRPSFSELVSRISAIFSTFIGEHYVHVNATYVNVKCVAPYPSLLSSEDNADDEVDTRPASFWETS
From the text: 1. MET Kinase Assay Protocol:
Colorimetric Determination of c-Met Kinase Activity
The receptor tyrosine kinase c-Met is a heterodimeric transmembrane glycoprotein involved in several cellular processes that aid in tumor progression. Phosphorylation of the tyrosine residues in the c-Met kinase domain is critical for its activity and the resulting down-stream effects. The colorimetric assay allows detection of the phosphorylated form of a biotinylated peptide upon activation of human recombinant Met kinase.
MET Kinase Assay Protocol:
c-Met Kinase activity shall be determined using an HTScan® Met Kinase Assay Kit (Cell Signalling Technology, Beverly, Mass.) with modifications. All incubations are carried out at room temperature. Briefly, 12.5 μl of a 4× reaction cocktail (DTT/Kinase buffer containing appropriate quantity of human Met kinase) is added to each well of a 96-well plate containing 12.5 μl pre-diluted compound of interest and incubated for 5 minutes. After the initial incubation, 25 μl/well of 2×ATP/biotinylated peptide is added and incubated for an additional 30 minutes. The reaction is terminated by the addition of 50 μl/well stop buffer (50 mM EDTA, pH 8.0). The reaction mixture (25 μl/well) is then transferred to a streptavidin coated plate (Perkin Elmer, Cat#4009-0010) containing 75 μl dH2O and incubated for 60 minutes. The plate is washed with 200 μl/well wash buffer (1×PBS, 0.05% Tween-20). After washing, 100 μl/well phospho-tyrosine mAb (1:1000 in wash buffer containing 1% BSA) is added and incubated for 60 minutes. After another round of washes, 100 μl/well europium labelled anti-mouse IgG (1:500 in wash buffer containing 1% BSA) is added and incubated for an additional 30 minutes. Following additional washes, 100 μl/well Delfia® enhancement solution (Perkin Elmer, Cat#1244-105) is added and incubated for 45 minutes. Florescence is measured on a microplate reader (BMG Labtech., Germany) at 340 nm (excitation) and 615 nm (emission) for calculating % inhibition. Data generated can be analyzed further using Graphpad Prism (Graphpad software, San Diego Calif.) for determination of IC50.

c-Met [4] = molecular target: T1, c-Met; assay: Inhibition of c-Met kinase phosphorylation in NCI-H441 cells (cell based ELISA); set-up: endogenous in cells; host or cells: NCI-H441; conditions: 1 h
Experimental: Inhibition of c-Met Kinase Phosphorylation in NCI—H441 Cells:
Inhibition of Met phosphorylation was determined using a cell based ELISA assay according to the following schedule:
Day 1: NCI—H441 cells were plated in 96-well plates in complete growth medium.
Day 2: Inhibitors at the desired concentration were added to the plates, incubated for 1 h and lysed subsequently. Lysates were transferred to NUNC Maxisorp plates coated with anti-cMet receptor antibody. Phopho-tyrosine mAb and HRP-lined anti-mouse IgG were used as primary and secondary antibodies respectively. Optical density was measured on a microplate reader (BMG Labtech., Germany) at […].

Akt [5] = assay: Inhibition of Akt phosphorylation in MKN-45 cells (western blot, pAkt S473); format: cell-based; conditions: Homo sapiens
Experimental: (§1) Inhibition of Akt Phosphorylation in MKN-45 or NCI-11441 Cells:
(§2) Akt is a serine-threonine kinase and a downstream marker regulated by c-Met kinase via the PI3K pathway. Once phosphorylated, Akt regulates several end processes including cell survival and growth. Cells were treated with 0−1000 nM of test compounds, lysed, and the proteins separated on a 10% SDS-PAGE. Following separation, proteins were transferred onto a nitrocellulose membrane and detected by chemiluminescence after incubation with pAkt S473 mAb (primary) and rabbit anti-mouse Ab (secondary). Intensity of the bands was determined using ImageJ 1.42q (NIH, USA) and normalized to Actin (loading control).

Akt [6] = assay: Inhibition of Akt phosphorylation in NCI-H441 cells (western blot, pAkt S473); format: cell-based; conditions: Homo sapiens
Experimental: as §1, §2

MKN-45 cells [7] = assay: Induction of apoptosis in MKN-45 cells (caspase-3 activity); format: cell-based, human; conditions: @ 3 μM, 24 h, caspase-3, percent of maximum response
Experimental: 6. Induction of Apoptosis in MKN-45 Cells:
Induction of Caspase 3 was measured fluorimetrically. Cells were incubated with desired concentrations of the compound for 24 h. After incubation, cells were harvested and counted. An equal number of viable cells per well (0.3×10^6 cells) were used for determination of caspase-3 activity. Increase in apoptosis manifested by an elevation in caspase-3 levels was determined using a Caspase-3 kit from Millipore. Data are expressed as a percent of the maximum response (100%).

Met kinase [8] = molecular target: T2, Met kinase; assay: Inhibition of HGF-induced Met phosphorylation in MDA-MB-231 cells; format: cell-based; set-up: endogenous in cells; host or cells: MDA-MB-231; conditions: HGF 50 ng/ml, read-out: HGF stimulated Met phosphorylation (IC50)
[9] = Homo sapiens, MKN-45, MKN-45 proliferation

T1 sequence (P08581 25-1390): as above

SMILES	IC50 (c-Met [1])	GI50 (MKN-45 cells [2]; [9])	inhibition at 1 µM (Met kinase [3])	IC50 (Met kinase [3])	melting point	IC50 (c-Met [4])	further results
CCNC(=O)c1ccc(-c2ccc3nnn(Cc4ccc5ncccc5c4)c3n2)cc1F [Ex43]	50 to 150 nM	≤ 50 nM					
COc1cccc(-c2ccc3nnn(Cc4ccc5ncccc5c4)c3n2)c1 [Ex 2, 6-((5-(3-Methoxyphenyl)-3H-[1,2,3]triazolo[4,5-b]pyridin-3-yl)methyl)quinoline]		> 1000 nM	75 to 100%	50 to 100 nM	133 to 135 °C		
OCc1ccc(-c2ccc3nnn(Cc4ccc5ncccc5c4)c3n2)cc1 [Ex 6, (4-(3-(quinolin-6-ylmethyl)-3H-[1,2,3]triazolo[4,5-b]pyridin-5-yl)phenyl)methanol]		150 to 500 nM	75 to 100%	50 to 100 nM	187 to 189 °C		
O=C(O)c1ccc(-c2ccc3nnn(Cc4ccc5ncccc5c4)c3n2)cc1 [Ex 8, 4-(3-(quinolin-6-ylmethyl)-3H-[1,2,3]triazolo[4,5-b]pyridin-5-yl)benzoic acid]		> 1000 nM	75 to 100%	50 to 100 nM	245 to 247 °C		
CNC(=O)c1ccc(-c2ccc3nnn(Cc4ccc5ncccc5c4)c3n2)cc1 [Ex 9, N-Methyl-4-(3-(quinolin-6-ylmethyl)-3H-[1,2,3]triazolo[4,5-b]pyridin-5-yl)benzamide]	50 to 150 nM	50 to 150 nM	75 to 100%	50 to 100 nM	220 to 222 °C		
CNC(=O)c1ccc(-c2ccc3nnn(Cc4ccc5ncccc5c4)c3n2)cc1F [Ex 14, 2-Fluoro-N-methyl-4-(3-(quinolin-6-ylmethyl)-3H-[1,2,3]triazolo[4,5-b]pyridin-5-yl)benzamide]	50 to 150 nM	50 to 150 nM	75 to 100%	100 to 250 nM	212 to 214 °C	10 to 50 nM	
OCc1ccc(-c2ccc3nnn(Cc4ccc5ncccc5c4)c3n2)cc1F [Ex 16, (2-Fluoro-4-(3-(quinolin-6-ylmethyl)-3H-[1,2,3]triazolo[4,5-b]pyridin-5-yl)phenyl)methanol]	≤ 50 nM	≤ 50 nM	75 to 100%	50 to 100 nM	202 to 204 °C		
NC(=O)c1ccc(-c2ccc3nnn(Cc4ccc5ncccc5c4)c3n2)cc1 [Ex 21, 4-(3-(quinolin-6-ylmethyl)-3H-[1,2,3]triazolo[4,5-b]pyridin-5-yl)benzamide]		150 to 500 nM	50 to 75%	250 to 1000 nM	229 to 231 °C		
O=C(NC1CC1)c1ccc(-c2ccc3nnn(Cc4ccc5ncccc5c4)c3n2)cc1F [Ex 46, N-Cyclopropyl-2-fluoro-4-(3-(quinolin-6-ylmethyl)-3H-[1,2,3]triazolo[4,5-b]pyridin-5-yl)benzamide]	50 to 150 nM	≤ 50 nM					
O=C(Nc1nc[nH]n1)c1ccc(-c2ccc3nnn(Cc4ccc5ncccc5c4)c3n2)cc1F [Ex 52, 2-Fluoro-4-(3-(quinolin-6-ylmethyl)-3H-[1,2,3]triazolo[4,5-b]pyridin-5-yl)-N-(1H-1,2,4-triazol-3-yl)benzamide]	≤ 50 nM	≤ 50 nM	75 to 100%	≤ 50 nM	265 to 267 °C	≤ 10 nM	IC50 (Akt [5]): 50 to 100 nM; IC50 (Akt [6]): ≤ 25 nM; Apoptosis in MKN-45 cells (percentage induction) (MKN-45 cells [7]): A (A = >50 to 100%); Inhibition (% Inhibition of MKN-45 proliferation) (MKN-45 cells [2]; MKN-45 proliferation, 0.1 μM): D (D = <25%)
NC(=O)c1c(F)cc(-c2ccc3nnn(Cc4ccc5ncccc5c4)c3n2)cc1F [Ex 130, 2,6-Difluoro-4-(3-(quinolin-6-ylmethyl)-3H-[1,2,3]triazolo[4,5-b]pyridin-5-yl)benzamide]	≤ 50 nM	≤ 50 nM	75 to 100%	≤ 50 nM			IC50 (Akt [5]): 50 to 100 nM; IC50 (Akt [6]): 25 to 50 nM; Apoptosis in MKN-45 cells (percentage induction) (MKN-45 cells [7]): B (B = ≤50); IC50 (Met kinase [8]): ≤ 10 nM; Inhibition (% Inhibition of MKN-45 proliferation) (MKN-45 cells [2]; MKN-45 proliferation, 0.1 μM): A (A = ≥75 to 100%)
NC(=O)c1ccc(-c2ccc3nnn(Cc4cc5cccnc5cc4F)c3n2)cc1F [Ex 137, 2-Fluoro-4-(3-((7-fluoroquinolin-6-yl)methyl)-3H-[1,2,3]triazolo[4,5-b]pyridin-5-yl)benzamide]	≤ 50 nM	≤ 50 nM	75 to 100%	≤ 50 nM		≤ 10 nM	inhibition at 0.1 µM (MKN-45 cells [2]; Homo sapiens, MKN-45, MKN-45 proliferation, 0.1 μM): 75 to 100%; % inhibition @ 1 uM (MKN-45 cells [2]; MKN-45 proliferation, 1 μM): B (B = ≥50-<75%)
Cl.NC(=O)c1c(F)cc(-c2ccc3nnn(Cc4ccc5ncccc5c4)c3n2)cc1F [Ex 139, 2,6-Difluoro-4-(3-(quinolin-6-ylmethyl)-3H-[1,2,3]triazolo[4,5-b]pyridin-5-yl)benzamide hydrochloride]						≤ 10 nM	inhibition at 1 µM (MKN-45 cells [2]; Homo sapiens, MKN-45, MKN-45 proliferation, 1 μM): < 25%; Inhibition (% Inhibition of MKN-45 proliferation) (MKN-45 cells [2]; MKN-45 proliferation, 0.1 μM): B (B = ≥50-<75%)
OCCn1cc(-c2ccc3nnn(Cc4ccc5ncccc5c4)c3n2)cn1 [Ex 146, 2-(4-(3-(Quinolin-6-ylmethyl)-3H-[1,2,3]triazolo[4,5-b]pyridin-5-yl)-1H-pyrazol-1-yl)ethanol]	50 to 150 nM	50 to 150 nM				50 to 100 nM	IC50 (Akt [6]): 25 to 50 nM
CC(c1ccc2ncccc2c1)n1nnc2ccc(-c3cnn(CCO)c3)nc21 (stereo not drawn) [Ex 164, 2-(4-(3-(1-(Quinolin-6-yl)ethyl)-3H-[1,2,3]triazolo[4,5-b]pyridin-5-yl)-1H-pyrazol-1-yl)ethanol]	50 to 150 nM	50 to 150 nM			188 to 191 °C		

From US10590129B2 (Incozen Therapeutics Pvt. Ltd., priority 2010, dated 2020)
